From patent US10548935B2, “Composition and method for preventing, reducing, alleviating or treating idiopathic vomiting” (Mars, Incorporated, priority 2013, dated 2020)
Structures can show the parent of a compound that is named as a salt.

Columns and labels:
h5HT3A receptor = biological target: T1, h5HT3A receptor (Homo sapiens, UniProt P46098); experiment: Assays for screening 5-HT3a receptor inhibitors (FLIPR calcium assay or aequorin-assisted serotonin receptor assay; dosage response curves); type: cell-based
T1 construct: expressed in transfected cells
T1 sequence (P46098 24-478): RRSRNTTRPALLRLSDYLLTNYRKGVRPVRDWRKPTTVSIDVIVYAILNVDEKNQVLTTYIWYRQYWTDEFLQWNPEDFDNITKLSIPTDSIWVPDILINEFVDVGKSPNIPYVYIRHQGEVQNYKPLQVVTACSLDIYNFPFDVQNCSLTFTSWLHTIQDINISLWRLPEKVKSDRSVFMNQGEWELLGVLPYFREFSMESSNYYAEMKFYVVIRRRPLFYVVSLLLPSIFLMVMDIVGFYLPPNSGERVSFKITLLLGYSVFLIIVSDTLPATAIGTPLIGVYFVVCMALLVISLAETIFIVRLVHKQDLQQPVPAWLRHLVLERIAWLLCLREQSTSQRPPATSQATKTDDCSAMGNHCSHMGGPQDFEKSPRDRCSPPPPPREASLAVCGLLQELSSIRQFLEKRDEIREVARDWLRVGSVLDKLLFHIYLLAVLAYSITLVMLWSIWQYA
Excerpt: Various known high through-put screening assays can be used to determine the inhibitory effects of a material on the 5-HT3a receptors.
Due to activation of 5HT3 receptor following calcium and sodium influx and the subsequent rapid intracellular calcium and sodium increase, a calcium indicator (e.g., Fluo-4 AM) or a sodium dye can therefore be readily used to detect influx Ca^+2 or Na^+ signal using the Flourometric Imaging Plate Reader (FLIPR) assay to identify agonists or antagonists of 5-HT3a receptors.
The 5-HT3a FLIPR assay can specifically be conducted by the following steps. First, […] (human embryonic kidney) cells stably expressed with h5HT3A receptor are grown in 16-18 ml growth medium in a 75 cm^2 flask for 2-3 days at 37° C. in a mammalian cell culture incubator with 5% CO2 and 90% humidity. The growth medium may contain, for example, DMEM/F12 (1:1, Invitrogen 11039) supplemented with 10% FBS (fetal bovine serum), 100 μg/ml Antibiotic/Antimycotic, and 150 ug/ml G418. The cell medium is then transferred to a 50 ml tube, and the cells are washed with 10 ml PBS. Subsequently, 2 ml of 0.05% Trypsin-EDTA is added to detach cells, and the above cell medium is added back to flask to inactivate trypsin. Next, the cells are transferred back to the above 50 ml tube, which is centrifuged at 850 rpm for 3 minutes to remove medium. The cells obtained from centrifugation are then re-suspended with growth medium at 1-1.5 ml per flask cells. One vial of Fluo-4 AM (calcium indicator, 50 ug) is subsequently dissolved with 20 ul of Pluronic F-127, and 10 ul of Fluo-4 AM solution per flask cells is added (1 vial of Fluo-4 AM solution, 20 ul, is good for 2 flask of cells). The cells are then stained with Fluo-4 AM for 30 min at room temperature with gently shaking on a shaker, followed by addition of 45 ml of the assay buffer [HBSS with CaCl2 and MgCl2 (Invitrogen 14025), 20 mM HEPES, pH7.2] to wash cells once. Centrifugation is carried out once more at 850 rpm for 3 minutes to remove assay buffer. The resulting cell pellet is again re-suspended in Assay buffer (per flask cells with 18-20 ml assay buffer). Ninety microliters of cells (50K cells/well) is loaded in the 96-well plates that are pre-loaded with the compounds to be tested (10 ul of 1 mM test materials, the final concentration of the test materials will be 100 uM). The plates are placed at room temperature for 15-30 min in dark and then transferred to FLIPR-384 instrument (Molecular Devices). […] The calcium signal of the test plates is finally recorded by the FLIPR program. The average and standard deviations are calculated using Excel, and the background (buffer) is subtracted. The percentage (%) inhibition is then calculated as
[formula] A test material will be considered as having an inhibitory effect against the 5-HT3a receptor if the percentage inhibition calculated is greater than 40%.
Aequorin is a photo-protein originating from the Jellyfish Aequorea Victoria. It is initially translated as an apo-enzyme requiring the hydrophobic group coelenterazine to initiate the conversion to aequorin. Upon binding of calcium, the coelenterazine is oxidized by aequorin into coelenteramide (BFP) resulting in the emission of blue light and CO2. Therefore, it is particularly useful for visualizing or detecting influx Ca^+2 signal.
After 18-24 h of culture, the cells are detached gently by flushing with their cell culture medium. Washing with an additional 10 mLs of cell culture media will ensure that optimum number of cells is captured. The cells are then centrifuged at 150×g, counted and re-suspended at 1×10^6 cells/mL in BSA medium [DMEM/Ham's F12 (with 15 mM HEPES, L-glutamine, without phenol red) culture medium (Invitrogen, Cat. No. 11039-021)+10% protease-free BSA (Sigma Aldrich, Cat. No. A9205) in H2O with a final BSA concentration of 0.1%] in a Falcon tube. Coelenterazine is added at a final concentration of 5 μM in assay medium.

NK-1 receptor = biological target: T2, NK-1 receptor (Homo sapiens, UniProt P25103); experiment: Tango GPCR cell-based assay, TACR1-bla U2OS cells, NK-1 receptor inhibitors; details: 1 nM SAR9 Substance P agonist
T2 construct: host or cells: U2OS (Tango TACR1-bla)
Experimental: Various known high through-put screening assays can also be used to determine the inhibitory effects of a material on the NK-1 receptors.
One exemplary assay is the Tango™ G-Protein Coupled Receptors (GPCR) cell-based assays by Invitrogen. First, TACR1-bla U2OS cells (from Invitrogen) are cultured in McCoy's medium. The cultured cells are then plated in DMEM into 96-well plates (15,125 cells/well in 90 uL/well). After 16-24 hours, the cells are treated with test materials or positive control antagonist (which is 100 nM Aprepitant) and then incubated for 30-60 minutes at 37° C. in 5% CO2. Subsequently, the cells are treated with 1 nM SAR9 Substance P agonist and incubated again for 5 hours at 37° C. in 5% CO2. The plates are removed from the incubator and equilibrated at room temperature for 15 minutes. During the equilibration step, the LiveBlazer substrate detection solution (from Invitrogen) is prepared. Six times of substrate mixture is added to each well, followed by incubating the plates in the dark at room temp for 2 hours. The plates are read by the Envision microplate reader in 2 channels using the “Geneblazer 451” protocol, which include a blue channel (Excitement at 405 and Emission at 460) and a green channel (Excitement at 405 and Emission at 535).
FIGS. 45-70 show the NK-1 dosage response curves of compounds described hereinabove with high NK-1 inhibitory effect.

T2 sequence (P25103 whole entry): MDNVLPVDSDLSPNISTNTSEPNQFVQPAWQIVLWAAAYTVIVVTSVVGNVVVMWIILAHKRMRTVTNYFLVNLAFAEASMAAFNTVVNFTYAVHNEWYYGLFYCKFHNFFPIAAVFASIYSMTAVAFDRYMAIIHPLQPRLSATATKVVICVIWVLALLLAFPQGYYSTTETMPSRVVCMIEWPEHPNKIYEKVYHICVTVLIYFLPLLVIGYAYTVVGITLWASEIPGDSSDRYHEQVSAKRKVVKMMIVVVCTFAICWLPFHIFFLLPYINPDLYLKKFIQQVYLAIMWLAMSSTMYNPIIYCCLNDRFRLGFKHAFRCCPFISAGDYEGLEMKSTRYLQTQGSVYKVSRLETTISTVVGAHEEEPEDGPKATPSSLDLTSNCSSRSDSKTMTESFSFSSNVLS

Row | Compound | 5-HT3a receptor inhibitory effect (h5HT3A receptor) | NK-1 receptor inhibitory effect (NK-1 receptor) | cell toxicity (Cell toxicity)
1 | CC(C)[C@@H]1CC[C@@H](C)C[C@H]1OCC(O)CO (stereo partly shown) [Menthoxypropanediol] | surprisingly high |  | 
2 | C=C1CC[C@H](O)C/C1=C/C=C1\CCC[C@]2(C)[C@@H]([C@H](C)CCCC(C)C)CC[C@@H]12 [Cholecalciferol VD3, Cholecalciferol] | surprisingly high |  | 
3 | CCCCCCCCCC1CCCC(=O)O1 (stereo not shown) [Delta-tetradecalactone] | surprisingly high |  | little or no
4 | CCOc1ccc2c(c1)C(C)=CC(C)(C)N2 [Ethoxyquin] | surprisingly high |  | little or no
5 | CC(C)=CCCC(C)=CCCC(C)=CC=O [Farnesal] | surprisingly high |  | little or no
6 | c1ccc(CCCc2ccccn2)cc1 [Cortex pyridine, 2-(3-phenylpropyl)pyridine] | surprisingly high |  | little or no
7 | OCCCCCCCCCCCCCCO [1,14-Tetradecanediol] | surprisingly high |  | little or no
8 | Cc1c(O)ccc(O)c1C [2,3-dimethyl-1,4-benzenediol] | surprisingly high |  | little or no
9 | CCCCCCCC1CCCC(=O)O1 (stereo not shown) [Delta-dodecalactone] | surprisingly high |  | little or no
10 | CC(C)=CCC[C@](C)(O)C1CC=C(C)CC1 (stereo partly shown) [Bisabolol] | surprisingly high |  | little or no
11 | CC(=O)/C=C/C1C(C)=CCCC1(C)C (stereo not drawn) [Alpha-lonone] | surprisingly high |  | little or no
12 | CC(=O)C=Cc1ccccc1 [Benzylidenacetone] |  | surprisingly high | 
13 | CCCCCC(=Cc1ccccc1)CO [Alpha-amylcinnamyl alcohol] | surprisingly high |  | little or no
14 | COc1ccc(-c2coc3cc(O)cc(O)c3c2=O)cc1 [Biochanin A] | surprisingly high |  | little or no
15 | CC/C=C\C/C=C\C/C=C\C/C=C\C/C=C\CCCC(=O)O [Eicosapentaenoic acid] |  |  | little or no
16 | C[C@@H]1CC[C@H]2C(C)(C)[C@H]3C[C@@]12CC[C@@]3(C)O [(+)-cedrol] | surprisingly high |  | little or no
17 | CCCCCCCCC(=O)NCc1ccc(O)c(OC)c1 [Nonivamide] | surprisingly high |  | little or no
18 | O=C(CCc1ccc(O)cc1)c1c(O)cc(O)cc1O [Phloretin] | surprisingly high |  | little or no
19 | CC1=C(CCC(=O)O)c2cc3[nH]c(cc4nc(cc5[nH]c(cc1n2)c(C)c5C(C)O)C(C)=C4C(C)O)c(C)c3CCC(=O)O (stereo not shown) [Hematoporphyrin dihydrochloride] |  |  | little or no
20 | O=C(/C=C/C=C/c1ccc2c(c1)OCO2)N1CCCCC1 [Piperine] |  |  | little or no
21 | CCCCCCCC1CC(C)OC1=O (stereo not shown) [3-heptyldihydro-5-methyl-2(3H)-furanone] | surprisingly high |  | little or no

Second part, led by results:

Row | 5-HT3a receptor inhibitory effect (h5HT3A receptor) | NK-1 receptor inhibitory effect (NK-1 receptor) | Compound | cell toxicity (Cell toxicity)
22 |  | surprisingly high | CC/C=C/C=C/C=O [Trans,trans-2,4-heptadienal] | little or no
23 |  | surprisingly high | COc1ccc(/C=C/C=O)cc1 [Trans-4-methoxycinnamaldehyde] | little or no
24 | surprisingly high |  | CCCCCC1C(=O)CCC1CC(=O)OC (stereo not shown) [Methyl dihydrojasmonate] | little or no
25 | surprisingly high |  | Vetiverol | little or no
26 |  | surprisingly high | CCCC/C=C/C=C/C=O [Trans,trans-2,4-nonadienal] | little or no
27 | surprisingly high |  | CCCCOCc1ccc(O)c(OC)c1 [Vanillyl butyl ether] | little or no
28 | surprisingly high |  | CCCCCCCCCCC/C=C\CCCCC(=O)O [Petroselinic acid] | little or no
29 |  | surprisingly high | CCCCCCCCCCCCCC[C@@H](O)[C@@H](O)[C@@H](N)CO [Phytosphingosine] | little or no
30 | surprisingly high |  | Cc1cc2nc3c(=O)[nH]c(=O)nc-3n(C[C@H](O)[C@H](O)[C@H](O)CO)c2cc1C [Riboflavin VB2, Riboflavin] | 
31 | surprisingly high |  | CCCCCC/C=C\CCCCCCCC(=O)O [Palmitoleic acid] | little or no
32 | surprisingly high |  | CCCCOC(=O)CC(O)(CC(=O)OCCCC)C(=O)OCCCC [Tributyl citrate] | little or no
33 | surprisingly high |  | CCCOC(=O)c1ccc(O)cc1 [N-propyl-4-hydroxybenzoate] | 
34 | surprisingly high |  | C=C(C)[C@@H]1CCC2=CC(=O)C[C@@H](C)[C@]2(C)C1 [Nootkatone] | little or no
35 | surprisingly high |  | O=c1cc(-c2ccccc2)oc2ccccc12 [Flavone] | little or no
36 | surprisingly high |  | CCCCCCCCC1CCC(=O)O1 (stereo not shown) [Gamma-dodecalactone] | little or no
